Assay results as given in patent publication US4223041A, “Urea derivatives to treat anxiety and aggressivity” (Labaz, priority 1976, dated 1980).

Experiments:
[1] = mouse, in vivo, po, 1000 mg/kg
Text: Finally, the hypnotic action of Compound A was studied in mice by means of the test of the posture reflex, the animals being kept under observation during the four hours following the oral administration of the product.

[2] = Aggressivity of the isolated mouse (antiaggressive activity); assay type: in vivo
Text: If a male mouse is isolated in a cage for three to four weeks, it will spontaneously attack any other animal of the same species which is placed in the same cage.
Mice wer isolated for the period of time required to render them spontaneously aggressive. Two mice, one rendered aggressive and one in a normal non-aggressive state, were then placed together and note was taken of the number of attacks by the aggressive mouse which occurred over a period of three minutes.
Each batch was composed of five pairs of animals.
The aggressive animals of each batch were then treated by oral route with the compound to be studied which was administered in such a way that the aggressive animals of each batch received a higher dose than those of the preceding batch.
Thirty minutes after administration, the couples were placed together again for a further three minutes and the number of attacks noted.

[3] = Four plates test (anxiolytic action); assay type: in vivo, mouse
Text: This test, which is specific to the anxiolytics, was undertaken with the mouse, thirty minutes after the oral administration of the compound to be studied.
It consists in placing mice in a box with fairly high walls, of which the bottom comprises four square plates. These plates, which all have the same dimensions, are separated from each other by a central axis and are alternately electrified by the positive and negative poles of a source of electric current. There is a space of a few millimeters between adjacent plates.
The mouse placed in this apparatus explores it and thus passes over the different plates in succession. Note is taken of the number of times each animal passes over the plates during one minute. When the current is switched on, the mouse passing over the plates receives an electric shock (80 V), which provokes a gradual decrease in the exploratory movements, and finally brings the animals to a complete stop.
Anxiolytic agents enable the animals to become more or less indifferent to the electric shock.
The percentage of protection against anxiety given by compounds of the invention was calculated by comparing the number of times the control animals passed over the plates when electrified with the number of times the treated animals passed over the electrified plates.

[4] = Potentiation of barbiturates, tranquillizers and ethanol; assay type: in vivo
Text: Additional pharmacological tests carried out with the preferred compound of the invention have shown that a non-sedative dose of this compound potentiates the hypnotic effect of the barbiturates as well as the sedative effect of tranquillizers such as meprobamate and diazepam.

[5] = Action with respect to tremorine (cholinolytic properties); assay type: in vivo, mouse
Method: This test has been described by EVERETT (Nature, 1956, 177-238)
When injected into mice, tremorine produces peripheral cholinergic effects i.e. weeping, hypersalivation, sedation, diarrhea as well as central cholinergic effects i.e. tremors, akinesia.
Batches of 10 mice separated into individual cages, were given the compound to be studied, by oral route, 30 minutes before administration of an intraperitoneal dose of 100 mg/kg of tremorine.
Note was then taken in each batch of the percentage of animals presenting the various symptoms of tremorine-induced poisoning since at such a dose of tremorine 100% of the control animals are poisoned.
The results hereunder are expressed in percentage of mice protected against tremor at the dose of the compound of the invention which was administered: […]

Acute toxicity in mice = settings: mouse, in vivo
Method: Acute toxicity was determined on Swiss E.O.P.S. mice, by oral route, using the technique of LITCHFIELD and WILCOXON (J. Pharmacol. Exp. Ther. […], 96, 99).

[6] = Action on the cardiovascular and respiratory system; assay type: in vivo, rat
Acute toxicity in rats = settings: rat, in vivo
[7] = "Electrically-provoked combat" test (anxiolytic action); assay type: in vivo, mouse; settings: mice
Text: Under certain conditions, a pair of mice reacts to an electric stimulus by a series of combats which are provoked by the anxiety felt by the animals as a result of the electric shock. This anxiety is expressed by a combat with the other animal which is rendered responsible. For this reason, the test described hereunder can be considered as a means of evaluating the anxiolytic action of a compound. Two mice which have been previously on a diet consisting only of water are placed together in a cage. They are then submitted to a series of electric impulses of an intensity varying between 40 and 80 volts according to the sensitivity of the animals. The test is first carried out with untreated animals as controls and then with the same animals treated 30 minutes before the test with a dose of the compound to be studied.
Note is taken on the number of combats engaged. The results are expressed in percentage of decrease in the number of combats engaged by the treated animals in comparison with the number of combats registered before treatment.

[8] = Effects on α- and β-adrenergic effects provoked by epinephrine; assay type: in vivo, rat; settings: 200 mg/kg i.p.
[9] = spontaneous motoricity in the mouse; assay type: in vivo
Text: This test is described in U.S. Pat. No. 3,929,869.

[10] = traction test (balance, muscular tonus and strength); settings: mouse, in vivo; oral, mice, 60 minutes after administration; read-out: ED50 (dose which causes 50% failures in the traction test)
[11] = Action on the pentylenetetrazole-induced seizure (anticonvulsant activity); assay type: in vivo, mouse; settings: Mus musculus, 3 h; 320 mg/kg oral, mice, 15 min before 125 mg/kg pentylenetetrazole; read-out: % of protection against death
Method: The purpose of this test which is carried out on mice is to determine whether the compounds of the invention, when given preventively by oral route, are capable at certain doses of protecting some of the animals against the epileptic seizure produced by a predetermined dose of pentylenetetrazole which would be 100% fatal in the absence of the compound.
The compound to be studied was administered fifteen minutes before an injection of 125 mg/kg of pentylenetetrazole and note was taken of the number of deaths occurring during the three hours following this injection. The results were expressed in percentage of protection of the animals against death at the dose studied.

[12] = 3000 mg/kg oral, 8-day observation, read-out: deaths
[13] = 100 and 200 mg/kg i.p., anaesthetized rat

CCCC(CCC)(CCC)NC(N)=O [Compound A, 1-(1,1-Di-n-propyl-n-butyl)-urea]
loss of the posture reflex [1]: no loss of the posture reflex
sedative effects at antiaggressive dose ([2]; 100 mg/kg oral): entirely devoid of any sedative effects
ED50 ([2]; 0.5 h, oral, isolated mouse, 30 min after administration, read-out: ED50 (50% fewer attacks)): 142 mg/kg
minimal effective dose ([2]; 0.5 h, oral, isolated mouse, read-out: dose from which antiaggressive action is exerted): 100 mg/kg
inhibition in vivo at 175 mg/kg ([3]; 0.5 h, 175 mg/kg oral, mouse, 30 min after administration, read-out: % of protection against anxiety): 25%
positive result in four plates test without sedative effect ([3]; at ED25 of four plates test): without any sedative effect
potentiation of the effects of ethanol ([4]; in vivo): slight potentiation
hypnotic effect of the barbiturates ([4]; non-sedative dose): potentiates
sedative effect of tranquillizers such as meprobamate and diazepam ([4]; non-sedative dose): potentiates
% of protection against tremor ([5]; 200 mg/kg oral, mice, 30 min before 100 mg/kg i.p. tremorine): 0%
protection against central or peripheral cholinergic effects provoked by tremorine ([5]; 100, 300, 400 and 500 mg/kg oral): did not protect any animal
mortality at 192 h (Acute toxicity in mice; [12]): 5%
LD50 (Acute toxicity in mice; oral): > 3000 mg/kg
cardiac frequency [6, 13]: does not modify
respiratory frequency [6, 13]: does not modify
systemic arterial blood pressure [6, 13]: does not modify
action on the cardiovascular or respiratory system ([6]; rat, in vivo): no appreciable action
mortality at 192 h (Acute toxicity in rats; [12]): 10%
LD50 at 192 h (Acute toxicity in rats; oral): > 3000 mg/kg
inhibition in vivo at 58 mg/kg ([7]; Mus musculus, 0.5 h, 58 mg/kg, 30 min before test, read-out: % of decrease in number of combats): 50%
decrease in number of combats obtainable without altering spontaneous motoricity ([7]; without action on spontaneous motoricity): 80%
α-adrenergic effects provoked by epinephrine [8]: does not modify
β-adrenergic effects provoked by epinephrine [8]: does not modify
decrease in spontaneous motoricity ([9]; 175 mg/kg oral, mouse, 60 minutes, non-significant): 12%
Spontaneous motoricity (% of decrease) ([9]; comparison at 25%-protection dose of four plates test, 175 mg/kg): 12%
decrease in spontaneous motoricity at dose giving 80% reduction in combats ([9]; dose producing 80% decrease in the number of combats): without any action on spontaneous motoricity
TD50 at 1 h [10]: 600 mg/kg
responders at 320 mg/kg [11]: 50%
